Drawing on PMC11233000, “Characterization of BrGH3A, a bovine rumen-derived glycoside hydrolase family 3 β-glucosidase with a permuted domain arrangement” (PLOS ONE, 2024), this text covers Km for eight compounds.

In assay [1] the test system is T1, BrGH3A.
T1 construct: C-FnIII-N domain order is natural
The assay is described as follows: glucose release, glucose oxidase/ABTS. The assay is classed as biochemical, metagenome: bovine ruminal fluid. The conditions noted are these: 0.1 M sodium citrate, pH 5.0, 40°C, 5 min. From the text: glucose release, glucose oxidase/ABTS on BrGH3A

Assay [2] concerns T1, BrGH3A. The assay is described as follows: p-nitrophenol release, absorbance […] nm. The assay is classed as biochemical, metagenome: bovine ruminal fluid. The conditions noted are these: 0.1 M sodium citrate, pH 5.0, 40°C, 5 min.
[3] abbreviates: released glucose divided by two.

On to `OC[C@H]1O[C@@H](O[C@H]2[C@H](O)[C@@H](O)C(O)O[C@@H]2CO)[C@H](O)[C@@H](O)[C@@H]1O` (some centres unmarked) [Cellobiose], for which, in assay [1] (setting [3]), the Km is 30 ± 3.9 mM.

In the case of `OC[C@H]1O[C@@H](O[C@H]2[C@H](O)[C@@H](CO)OC(O)[C@@H]2O)[C@H](O)[C@@H](O)[C@@H]1O` (some centres unmarked) [Laminaribiose], the Michaelis-Menten constant (Km) in assay [1] (setting [3]) was 14.3 ± 1.3 mM. For the compound `OC[C@H]1O[C@@H](O[C@@H]2[C@@H](O)[C@H](O[C@H]3[C@H](O)[C@@H](CO)OC(O)[C@@H]3O)O[C@H](CO)[C@H]2O)[C@H](O)[C@@H](O)[C@@H]1O` (some centres unmarked) [Laminaritriose], the Km in assay [1] (calculated as total released glucose) is 5.4 ± 0.42 mM. `O=[N+]([O-])c1ccc(O[C@@H]2OC[C@H](O)[C@H](O)[C@H]2O)cc1` [pNP-Ara, p-nitrophenyl-α-L-arabinopyranoside]: in assay [2], the Km came out at 9.95 ± 1.16 mM. On to `C[C@H]1O[C@@H](Oc2ccc([N+](=O)[O-])cc2)[C@H](O)[C@@H](O)[C@H]1O` [pNP-Fuc, p-nitrophenyl-β-D-fucopyranoside], for which the Km in assay [2] was 7.96 ± 0.64 mM.

For `O=[N+]([O-])c1ccc(O[C@@H]2O[C@H](CO)[C@H](O)[C@H](O)[C@H]2O)cc1` [pNP-Gal, p-nitrophenyl-β-D-galactopyranoside], the Km in assay [2] was 7.55 ± 0.9 mM. On the same count and under the same terms, the figure for `O=[N+]([O-])c1ccc(O[C@@H]2O[C@H](CO)[C@@H](O)[C@H](O)[C@H]2O)cc1` [pNP-Glc, p-nitrophenyl-β-D-glucopyranoside] is 0.6 ± 0.04 mM. Same read-out and setting: the result for `O=[N+]([O-])c1ccc(O[C@@H]2OC[C@@H](O)[C@H](O)[C@H]2O)cc1` [pNP-Xyl, p-nitrophenyl-β-D-xylopyranoside] reads 2.12 ± 0.1 mM.

As a reminder, the Km is the concentration of substrate that gives half-maximal velocity.
